Experimental data: ChEMBL document CHEMBL5303304, “EUbOPEN Chemogenomics Library - IncuCyte” (2023)

Columns and labels:
Type in all cases: toxicity, cell-based
[1] = tested on: HEK-293T; test: Incucyte cell viability with HEK293T; conditions: human, 10 µM, compound concentration 10 uM
[2] = tested on: U2OS; test: Incucyte cell viability with U2OS; conditions: human, 10 µM, compound concentration 10 uM
[3] = tested on: Fibroblast; test: Incucyte cell viability with human fibroblast; conditions: 10 µM, compound concentration 10 uM
Note: unitless GR value; below 1 slowed growth and below 0 cell loss.

Row | SMILES | Growth Rate ([1]; 0 h, replicate number 1) | Growth Rate ([1]; 0 h, replicate number 2) | Growth Rate ([1]; 12 h, replicate number 2) | Growth Rate ([1]; 18 h, replicate number 2) | Growth Rate ([1]; 24 h, replicate number 2) | Growth Rate ([2]; 0 h, replicate number 1) | Growth Rate ([2]; 6 h, replicate number 2) | Growth Rate ([2]; 12 h, replicate number 1) | Growth Rate ([2]; 12 h, replicate number 2) | Growth Rate ([2]; 18 h, replicate number 1) | Growth Rate ([2]; 18 h, replicate number 2) | Growth Rate ([2]; 24 h, replicate number 2) | Growth Rate ([3]; 0 h, replicate number 2) | Growth Rate ([3]; 6 h, replicate number 2) | Growth Rate ([3]; 12 h, replicate number 1) | Growth Rate ([3]; 18 h, replicate number 2) | Growth Rate ([1]; 6 h, replicate number 2) | Growth Rate ([3]; 6 h, replicate number 1) | Growth Rate ([3]; 18 h, replicate number 1) | Growth Rate ([3]; 24 h, replicate number 1) | also measured
1 | O=C(O)CNC(=O)c1c(O)c2ccccc2n(Cc2ccccc2)c1=O | -0.08 | -0.1 | 0.91 | 0.99 | 0.93 | 0.29 | 0.74 | 0.92 | 0.94 | 0.86 | 0.9 | 0.97 | 0.56 | 0.61 | 0.75 | 0.94 |  |  |  |  | Growth Rate ([2]; 0 h, replicate number 2): 0.34; Growth Rate ([3]; 12 h, replicate number 2): 0.68
2 | Clc1ccc(-c2nc3sccn3c2/C=N/OCc2ccc(Cl)c(Cl)c2)cc1 | -0.74 | -0.64 | 1 |  |  | 0.48 | 0.91 | 0.92 | 0.89 | 0.87 | 0.95 | 0.93 | 0.32 |  | 0.58 |  | 1 | 0.02 | 0.63 | 0.85 | 
3 | CCOP(=O)(OCC)C(=Cc1cc(C(C)(C)C)c(O)c(C(C)(C)C)c1)P(=O)(OCC)OCC | 0.16 | -0.99 | 0.55 | 0.79 | 0.95 |  | 0.36 |  | 0.63 |  | 0.75 | 0.77 | 0.24 | 0.08 | 0.78 | 0.7 | 0.25 | 0.57 | 0.39 | 0.61 | Growth Rate ([1]; 18 h, replicate number 1): 0.94; Growth Rate ([2]; 0 h, replicate number 2): 0.17
4 | CN(C)[C@H]1C[C@H](n2cnc(-c3ccc(F)cn3)c2-c2ccnc3[nH]ccc23)C1 | 0.9 | -0.95 |  |  |  | 0.83 | 0.94 |  | 0.81 |  | 0.94 | 0.85 | 0.15 |  | 0.89 |  | 0.95 |  | 0.84 |  | 
5 | Cn1ccc(Cn2cnc(-c3ccc(F)cc3)c2-c2ccnc3[nH]ccc23)n1 | -0.47 | 0.06 | 0.86 | 0.98 | 0.89 | 0.48 | 0.97 | 0.89 | 0.94 |  | 0.95 | 0.89 | 0.53 |  |  |  |  |  |  |  | Growth Rate ([2]; 6 h, replicate number 1): 0.89; Growth Rate ([3]; 0 h, replicate number 1): 0.19
6 | CN(C)c1ncc2cc(-c3ccc(-c4ncccc4F)cc3Cl)c(=O)n(C[C@H]3OC[C@H](N)CO3)c2n1 | -1 |  |  |  |  |  |  |  | 0.96 |  | 0.99 |  | -0.89 |  |  |  |  |  |  |  | Growth Rate ([3]; 0 h, replicate number 1): -0.2
7 | CN1CCC(F)(Cn2cnc(-c3ccc(F)cn3)c2-c2ccnc3[nH]ccc23)CC1 | 0.3 | -0.77 | 0.86 |  | 0.74 | 0.97 | 0.77 | 0.8 | 0.87 | -0.61 | 0.94 | 0.68 |  | 0.29 | 0.6 | 0.68 | 0.85 | -0.23 | 0.66 | 0.81 | Growth Rate ([1]; 6 h, replicate number 1): 0.99; Growth Rate ([1]; 18 h, replicate number 1): 0.93; Growth Rate ([1]; 24 h, replicate number 1): 0.9; Growth Rate ([2]; 6 h, replicate number 1): 0.99; Growth Rate ([2]; 24 h, replicate number 1): 0.84; Growth Rate ([3]; 12 h, replicate number 2): 0.78; Growth Rate ([3]; 24 h, replicate number 2): 0.8
